Bridges are numbered along the chain shown (N, C = ends). Where no end group is shown, it is not given here.
Experiments:
mouse red blood cells = type: cell-based
Experimental: The hemolytic assay was performed as described previously. Briefly, mouse red blood cells (RBCs, Innovative Research, Novi, MI) were washed three times with phosphate-buffered saline (PBS, pH 7.4), centrifuged at 1000×g for 10 min, and resuspended in PBS to 10% (v/v). The RBCs were treated with CAMPs at various concentrations ranging from 4 to 512 μg/ml (2-fold serial dilutions) at 37 °C for 1 h. PBS and 0.2% Triton X-100 were used as negative and positive controls, respectively. The supernatant was transferred to a 96-well flat-bottomed polystyrene plate (Thermo Fisher Scientific), and the amount of hemoglobin released into the supernatant was determined by measuring the absorbance with a spectrophotometer at 540 nm. Hemolytic activity was expressed as the percentage of hemolysis and calculated using the following equation: hemolysis (%) = (As-A0)/(A100-A0) × 100, where As is the absorbance of the sample, A100 is the absorbance of completely lysed RBCs in 0.2% Triton X-100, and A0 is the absorbance in the complete absence of hemolysis (PBS treatment). The assay was performed in triplicate. The therapeutic index (T.I.) was calculated according to a previously published formula: T.I. = MHC / MICGM [30]. […] The MICGM was the minimum inhibitory concentration of the peptide concentrations against bacterial growth after the geometric mean was calculated. […]

S. aureus (ATCC 29213) = type: cell-based, Staphylococcus aureus; conditions: ATCC 29213, 24 h
Experimental: (§1) Pseudomonas aeruginosa (P. aeruginosa, ATCC 27853) and Staphylococcus aureus (S. aureus, ATCC 29213) were used to evaluate the novel CAMPs’ antimicrobial activity, salt- and protease-resistance, and membrane permeability. Ten multiple-drug resistant P. aeruginosa and ten methicillin-resistant S. pseudintermedius (MRSP) clinical isolates (Table 2) were used to evaluate the antimicrobial efficacy of CAMPs. The clinical isolates were cultured from diagnostic specimens by the microbiology staff at the University of Missouri Veterinary Medical Diagnostic Laboratory as part of standard service. The isolates were donated to the present project with appropriate permission. All bacterial strains were maintained and grown in Luria-Bertani broth or agar (LB, BD Difco™) at 37 °C as described previously.
(§2) Minimum inhibitory concentrations (MICs) were determined primarily based on the guidelines of the Clinical and Laboratory Standards Institute (CLSI). The Muller Hinton (MH) II broth used in MIC assay contained 20–25 mg/L of calcium and 10–12.5 mg/L of magnesium. The procedures were described in previous studies. In brief, two-fold serially diluted CAMPs (2 to 256 μg/ml) were mixed with appropriate bacterial strains at a final concentration of 5 × 10^5 CFU/ml in a 96-well microtiter plate (Nunc™, Thermo Fisher Scientific). Following incubation at 37 °C for 24 h, MIC was recorded. All assays were conducted in triplicate.

[1] = test system: Gram-positive bacteria (S. aureus, S. pseudintermedius); test: Average MIC for Gram-positive bacteria; type: cell-based, Staphylococcus spp.; conditions: average over S. aureus ATCC 29213 and 10 MRSP strains (Gram-positive), ± SD
Experimental: as §2
The hemolytic assay was performed as described previously. […] The supernatant was transferred to a 96-well flat-bottomed polystyrene plate (Thermo Fisher Scientific), and the amount of hemoglobin released into the supernatant was determined by measuring the absorbance with a spectrophotometer at 540 nm. Hemolytic activity was expressed as the percentage of hemolysis and calculated using the following equation: hemolysis (%) = (As-A0)/(A100-A0) × 100, where As is the absorbance of the sample, A100 is the absorbance of completely lysed RBCs in 0.2% Triton X-100, and A0 is the absorbance in the complete absence of hemolysis (PBS treatment). […] The therapeutic index (T.I.) was calculated according to a previously published formula: T.I. = MHC / MICGM [30]. […]

P. aeruginosa = type: cell-based, Pseudomonas aeruginosa
Experimental: as §1
as §2, with “All assays were conducted in triplicate.” left out

For Ac-LRRLKPLIRPWLRPLRRWWW-NH2 [CAMP-A], the “concentration exhibiting hemolytic and cytotoxic activities” value (mouse red blood cells) was ≥ 128 µg/mL and the MIC (S. aureus (ATCC 29213)) was 32 µg/mL.
In the case of Ac-PIHRRIPPRWPRLKRRW-NH2 [CAMP-t2], the MIC (S. aureus (ATCC 29213)) is reported as 64 µg/mL.
Work on “Ac-RKFLRRRGEVAHFSQKSLGLYCWWW-NH2 [CAMP-t1]” yielded an MIC (S. aureus (ATCC 29213)) of 64 µg/mL.
For Ac-RRRWRKRRWWW-NH2 [CAMP-B], the MIC (S. aureus (ATCC 29213)) was 32 µg/mL.
With “SPIHACRYQRGVCIPGPCRWPYYRVGSCGSGLKSCCVRNRWA (disulfide 6-35, 13-28, 18-36 (inferred)) [AvBD-6, reference compound]” the “MICAverage G+” value [1] was ≥256 µg/mL, the MIC (P. aeruginosa; 24 h) was > 256 µg/mL and the “MICAverage G-” value (P. aeruginosa; average over 11 P. aeruginosa strains (Gram-negative), ± SD) was > 256 µg/mL.
